In US8030498B2, “Benzoylpyrazole compounds and herbicides containing them” (Ishihara Sangyo Kaisha, Ltd., priority 2005, dated 2011):

Tests used:
[1] = system: soybean (Glycine max Merr.); assay: Test Example 1: foliar treatment, growth inhibition rate, soybean; format: in vivo; settings: visually observed 17th to 23rd day after application
Method in brief: (§1)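 Visual scoring of growth inhibition, 0% (untreated) to 100% (complete kill), on days 17–23 following post-emergence spray of formulated compound in water (500 L/ha, 0.1 vol % spreader); plants treated at set leaf stages, e.g. corn 2.0–3.5, wheat 1.7–3.4.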

[2] = system: velvetleaf (Abutilon theophrasti MEDIC.); assay: Test Example 1: foliar treatment, growth inhibition rate, velvetleaf; format: in vivo; settings: visually observed 17th to 23rd day after application
Method in brief: (§2)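 Post-emergence foliar spray, pot test; WP/EC formulation in water at 500 L/ha, + 0.1 vol % spreader; leaf stage at treatment: corn 2.0–3.5, green foxtail 1.0–3.0, rice 1.0–2.5, wheat 1.7–3.4; visual % inhibition at 17–23 DAT (0 = untreated, 100 = dead).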

[3] = system: greenfoxtail (Setaria viridis L.); assay: Test Example 1: foliar treatment, growth inhibition rate, greenfoxtail; format: in vivo; settings: visually observed 17th to 23rd day after application
Method in brief: (§3)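 Seeds were sown in upland field soil in pots. At the target leaf stage (corn 2.0–3.5; greenfoxtail 1.0–3.0; rice 1.0–2.5; wheat 1.7–3.4), the formulated compound, diluted at a water volume of 500 L/ha with 0.1 vol % spreader, was applied by small sprayer. Plants were rated by eye on days 17–23.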

[4] = system: redroot pigweed (Amaranthus retroflexus L.); assay: Test Example 1: foliar treatment, growth inhibition rate, redroot pigweed; format: in vivo; settings: visually observed 17th to 23rd day after application
Method in brief: as §1

[5] = system: wheat; assay: Test Example 2: soil application on the day after sowing, growth inhibition rate, wheat; format: in vivo, Triticum spp.; settings: 250 g/ha active ingredient, observed on 19th to 24th day
Method in brief: (§4)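 Pre-emergence soil treatment: one day post-sowing in upland soil, compound formulations at set active-ingredient rates were applied in 500 L/ha water. Visual rating of growth inhibition (0% untreated-equivalent to 100% complete kill) followed on days 19–24 after application.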

[6] = system: rice; assay: Test Example 2: soil application on the day after sowing, growth inhibition rate, rice; format: in vivo, Oryza sativa L.; settings: 250 g/ha active ingredient, observed on 19th to 24th day
Method in brief: as §4

[7] = system: barnyardgrass (Echinochloa crus-galli L.); assay: Test Example 1: foliar treatment, growth inhibition rate, barnyardgrass; format: in vivo; settings: visually observed 17th to 23rd day after application
Method in brief: as §2

[8] = system: soybean; assay: Test Example 2: soil application on the day after sowing, growth inhibition rate, soybean; format: in vivo, Glycine max Merr.; settings: 250 g/ha active ingredient, observed on 19th to 24th day
Method in brief: as §4

[9] = system: redroot pigweed; assay: Test Example 2: soil application on the day after sowing, growth inhibition rate, redroot pigweed; format: in vivo, Amaranthus retroflexus L.; settings: 250 g/ha active ingredient, observed on 19th to 24th day
Method in brief: as §4

[10] = system: crabgrass; assay: Test Example 2: soil application on the day after sowing, growth inhibition rate, crabgrass; format: in vivo, Digitaria sanguinalis L.; settings: 250 g/ha active ingredient, observed on 19th to 24th day
Method in brief: as §4

[11] = system: rice (Oryza sativa L.); assay: Test Example 1: foliar treatment, growth inhibition rate, rice; format: in vivo; settings: visually observed 17th to 23rd day after application
Method in brief: as §3

[12] = system: barnyardgrass; assay: Test Example 2: soil application on the day after sowing, growth inhibition rate, barnyardgrass; format: in vivo, Echinochloa crus-galli L.; settings: 250 g/ha active ingredient, observed on 19th to 24th day
Method in brief: as §4

[13] = system: crabgrass (Digitaria sanguinalis L.); assay: Test Example 1: foliar treatment, growth inhibition rate, crabgrass; format: in vivo; settings: visually observed 17th to 23rd day after application
Method in brief: as §1

[14] = system: prickly sida; assay: Test Example 2: soil application on the day after sowing, growth inhibition rate, prickly sida; format: in vivo, Sida spinosa L.; settings: 250 g/ha active ingredient, observed on 19th to 24th day
Method in brief: as §4

[15] = system: prickly sida (Sida spinosa L.); assay: Test Example 1: foliar treatment, growth inhibition rate, prickly sida; format: in vivo; settings: visually observed 17th to 23rd day after application
Method in brief: as §1

[16] = system: greenfoxtail; assay: Test Example 2: soil application on the day after sowing, growth inhibition rate, greenfoxtail; format: in vivo, Setaria viridis L.; settings: 250 g/ha active ingredient, observed on 19th to 24th day
Method in brief: as §4

[17] = system: velvetleaf; assay: Test Example 2: soil application on the day after sowing, growth inhibition rate, velvetleaf; format: in vivo, Abutilon theophrasti MEDIC.; settings: 250 g/ha active ingredient, observed on 19th to 24th day
Method in brief: as §4

[18] = system: corn (Zea mays L.); assay: Test Example 1: foliar treatment, growth inhibition rate, corn; format: in vivo; settings: visually observed 17th to 23rd day after application
Method in brief: as §3

[19] = system: wheat (Triticum spp.); assay: Test Example 1: foliar treatment, growth inhibition rate, wheat; format: in vivo; settings: visually observed 17th to 23rd day after application
Method in brief: as §3

[20] = system: corn; assay: Test Example 2: soil application on the day after sowing, growth inhibition rate, corn; format: in vivo, Zea mays L.; settings: 250 g/ha active ingredient, observed on 19th to 24th day
Method in brief: as §4

SMILES	Growth inhibition rate (%) Soybean ([1]; 31 g/ha active ingredient) [%]	Growth inhibition rate (%) Velvetleaf ([2]; 31 g/ha active ingredient) [%]	Growth inhibition rate (%) Greenfoxtail ([3]; 31 g/ha active ingredient) [%]	Growth inhibition rate (%) redroot pigweed ([4]; 31 g/ha active ingredient) [%]	Growth inhibition rate (%) Wheat [5] [%]	Growth inhibition rate (%) Rice [6] [%]	Growth inhibition rate (%) Barnyardgrass ([7]; 31 g/ha active ingredient) [%]	Growth inhibition rate (%) Soybean [8] [%]	Growth inhibition rate (%) redroot pigweed [9] [%]	Growth inhibition rate (%) Crabgrass [10] [%]	Growth inhibition rate (%) Rice ([11]; 31 g/ha active ingredient) [%]	Growth inhibition rate (%) Barnyardgrass [12] [%]	Growth inhibition rate (%) Crabgrass ([13]; 31 g/ha active ingredient) [%]	Growth inhibition rate (%) Prickly sida [14] [%]	Growth inhibition rate (%) Prickly sida ([15]; 31 g/ha active ingredient) [%]	Growth inhibition rate (%) Greenfoxtail [16] [%]	Growth inhibition rate (%) Velvetleaf [17] [%]	Growth inhibition rate (%) Corn ([18]; 31 g/ha active ingredient) [%]	Growth inhibition rate (%) Wheat ([19]; 31 g/ha active ingredient) [%]	Growth inhibition rate (%) Corn [20] [%]	other results
CCn1ncc(C(=O)c2ccc(S(C)(=O)=O)c(C(=O)OC)c2Cl)c1OC(=O)SC [compound 97]	80	80	100	100	0	70	100	10	100	100	60	100	70	100	50	100	100	0	10	0	
C=CCSC(=O)Oc1c(C(=O)c2ccc(S(C)(=O)=O)c(C(=O)OC)c2C)cnn1CC [compound 99]	98	98	100	98	0	100	98	40	95	100	95	100	100	100	100	100	100	50	60	0	
CCSC(=O)Oc1c(C(=O)c2ccc(S(C)(=O)=O)c(SC)c2Cl)cnn1C [compound 212]					0	0		0	80	40		50		50		0	0			0	Growth inhibition rate (%) Soybean ([1]; 63 g/ha active ingredient): 90%; Growth inhibition rate (%) Velvetleaf ([2]; 63 g/ha active ingredient): 60%; Growth inhibition rate (%) Greenfoxtail ([3]; 63 g/ha active ingredient): 60%; Growth inhibition rate (%) redroot pigweed ([4]; 63 g/ha active ingredient): 100%; Growth inhibition rate (%) Barnyardgrass ([7]; 63 g/ha active ingredient): 100%; Growth inhibition rate (%) Rice ([11]; 63 g/ha active ingredient): 30%; Growth inhibition rate (%) Crabgrass ([13]; 63 g/ha active ingredient): 50%; Growth inhibition rate (%) Prickly sida ([15]; 63 g/ha active ingredient): 40%; Growth inhibition rate (%) Corn ([18]; 63 g/ha active ingredient): 0%; Growth inhibition rate (%) Wheat ([19]; 63 g/ha active ingredient): 0%
COC(=O)c1c(S(C)(=O)=O)ccc(C(=O)c2cnn(C)c2OC(=O)SCc2ccccc2)c1C [compound 92]	10	70	60	10	0	80	0	0	70	95	0	80	0	60	10	70	50	0	0	0	
